Series [1] concerns NE enzyme. The settings on record: background statement, no data; cited from earlier work.
Series [2] can be described thus: Pharmacokinetic Experiment in Rats. The class given is in vivo, SD rats. The settings on record: Intravenous (1 mg/kg), rat plasma. On the procedure:
1.1 Test animals: Male SD rats, ca. 220 g, 6-8 weeks old, 6 rats/compound. The rats were purchased from […] EXPERIMENTAL ANIMALS CO., LTD. 1.2 Test design: On the day of the test, 6 SD rats were randomly divided into groups according to body weight. The rats were fasted but had access to water for 12-14 hours one day before administration. The rats were fed 4 hours after administration. Table 9. Information for administration Vehicle for intravenous administration: 5% DMA + 5% Solutol + 90% Saline; Vehicle for oral gavage: 0.5% MC; control compound […] is namely Compound 2 in patent WO2015110826A1, and was prepared according to the method described in the patent. Rats were anesthetized with isoflurane before and after administration. Blood (0.1 ml) was collected by orbital blood collection and placed in EDTAK2 centrifuge tube. The blood sample was centrifuged at 5000 rpm at 4°C for 10 min. The plasma was collected. […] All samples were stored at -80° C till analysis and detection. Table 10. Pharmacokinetic parameters of test compounds in rat plasma

Series [3] deals with LPS-induced acute lung injury. The conditions noted are these: background statement, no data; cited from earlier work.

Turning to `Cn1c(=O)oc2ccc(-c3ccc(C[C@@H](C#N)NC(=O)[C@@H]4CNCCCO4)c(F)c3)cc21` [Compound A, (S)-N-((S)-1-cyano-2-(2-fluoro-4-(3-methyl-2-oxo-2,3-dihydrobenzo[d]oxazol-5-yl)phenyl)ethyl)-1,4-oxazepane-2-carboxamide], in series [1], the “NE enzyme activity in rat bone marrow” value was “significantly inhibit”. Further, in series [2], the “CL” value is 1.66 mL/min/kg and the Vdss (commonly the apparent volume that relates the amount in the body to the concentration in plasma or blood) is 0.753 L/kg. In series [3], the “LPS-induced acute lung injury in mice” value is recorded as “mitigate”.
As to `Cn1c(=O)oc2ccc(-c3ccc(C[C@@H](C#N)NC(=O)[C@@H]4CNCCCO4)cc3)cc21` [INS 1007, reference compound], in series [2], the “CL” value came to 2.08 mL/min/kg and the distribution volume (Vdss) is on record as 0.738 L/kg.

The values above are taken from patent EP4684787A1, “PHARMACEUTICAL COMPOSITION CONTAINING DIPEPTIDYL PEPTIDASE SMALL MOLECULE INHIBITOR” (Haisco Pharmaceuticals Pte. Ltd., priority 2023, dated 2024).
